Measured values: ChEMBL document CHEMBL5620362 (Eur J Med Chem, 2023)

Key:
[1] = tested on: HPAF-II; experiment: Antitumor activity against human HPAF-II cells measured after 72 hrs; assay type: functional, cell-based
[2] = target: T1, Nuclear receptor ROR-gamma (Homo sapiens, UniProt P51449); experiment: Binding affinity to CM5 chip-immobilized recombinant ROR-gamma LBD (unknown origin) assessed as dissociation constant by SPR analysis
T1 sequence (P51449 whole entry): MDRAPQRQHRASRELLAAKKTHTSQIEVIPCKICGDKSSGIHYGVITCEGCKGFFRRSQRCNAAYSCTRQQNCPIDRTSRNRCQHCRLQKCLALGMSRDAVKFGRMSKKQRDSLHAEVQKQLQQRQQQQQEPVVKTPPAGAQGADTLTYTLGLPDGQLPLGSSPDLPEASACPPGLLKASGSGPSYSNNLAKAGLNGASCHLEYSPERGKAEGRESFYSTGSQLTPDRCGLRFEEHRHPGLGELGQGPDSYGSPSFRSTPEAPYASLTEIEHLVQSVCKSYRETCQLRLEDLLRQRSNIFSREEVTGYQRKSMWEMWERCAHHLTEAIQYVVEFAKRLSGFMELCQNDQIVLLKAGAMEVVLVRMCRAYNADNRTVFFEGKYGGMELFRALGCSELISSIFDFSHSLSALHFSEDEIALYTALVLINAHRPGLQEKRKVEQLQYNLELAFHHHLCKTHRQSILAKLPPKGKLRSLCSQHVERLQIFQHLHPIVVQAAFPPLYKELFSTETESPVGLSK

[3] = tested on: HPAF-II; experiment: Induction of apoptosis in human HPAF-II cells assessed as viable cells at 1 uM incubated for 48 hrs by Annexin V-FITC/PI staining based flow cytometry (reference value: 89.73 %); assay type: functional; conditions: read-out: Activity
[4] = tested on: NCI-H23; experiment: Induction of apoptosis in human NCI-H23 cells assessed as necrotic cells at 10 uM incubated for 48 hrs by Annexin V-FITC/PI staining based flow cytometry (reference value: 0.78 %); assay type: functional
[5] = tested on: NCI-H23; experiment: Induction of apoptosis in human NCI-H23 cells assessed as early apoptotic cells at 10 uM incubated for 48 hrs by Annexin V-FITC/PI staining based flow cytometry (reference value: 4.17 %); assay type: functional
[6] = tested on: NCI-H23; experiment: Induction of apoptosis in human NCI-H23 cells assessed as late apoptotic cells at 10 uM incubated for 48 hrs by Annexin V-FITC/PI staining based flow cytometry (reference value: 2.89 %); assay type: functional
[7] = tested on: HPAF-II; experiment: Induction of apoptosis in human HPAF-II cells assessed as late apoptotic cells at 1 uM incubated for 48 hrs by Annexin V-FITC/PI staining based flow cytometry (reference value: 1.28 %); assay type: functional
[8] = tested on: HPAF-II; experiment: Induction of apoptosis in human HPAF-II cells assessed as early apoptotic cells at 1 uM incubated for 48 hrs by Annexin V-FITC/PI staining based flow cytometry (reference value: 0.90 %); assay type: functional
[9] = tested on: HPAF-II; experiment: Induction of apoptosis in human HPAF-II cells assessed as necrotic cells at 1 uM incubated for 48 hrs by Annexin V-FITC/PI staining based flow cytometry (reference value: 8.09 %); assay type: functional
[10] = tested on: NCI-H23; experiment: Induction of apoptosis in human NCI-H23 cells assessed as viable cells at 10 uM incubated for 48 hrs by Annexin V-FITC/PI staining based flow cytometry (reference value: 92.16 %); assay type: functional; conditions: read-out: Activity

Structure (SMILES) | IC50 [1] [nM] | Kd [2] [nM] | further results
C=C(C)[C@@H]1CC[C@]2(C(=O)N[C@@H]3CCCN(C)C3)CC[C@]3(C)[C@H](CC[C@@H]4[C@@]5(C)CC[C@H](O)C(C)(C)[C@@H]5CC[C@]43C)[C@@H]12 | 300 | 340 | 
C=C(C)[C@@H]1CC[C@]2(C(=O)NCCCN(C)C)CC[C@]3(C)[C@H](CC[C@@H]4[C@@]5(C)CC[C@H](N)C(C)(C)[C@@H]5CC[C@]43C)[C@@H]12 | 370 | 4550 | 
CN(C)CCCNC(=O)[C@]12CC[C@@H](C3(C)CC3)[C@@H]1[C@H]1CC[C@@H]3[C@@]4(C)CC[C@H](O)C(C)(C)[C@@H]4CC[C@@]3(C)[C@]1(C)CC2 | 120 | 240 | 
C=C(C)[C@@H]1CC[C@]2(C(=O)N[C@@H]3CCN(C)C3)CC[C@]3(C)[C@H](CC[C@@H]4[C@@]5(C)CC[C@H](O)C(C)(C)[C@@H]5CC[C@]43C)[C@@H]12 | 380 | 670 | 
C=C(C)[C@@H]1CC[C@]2(C(=O)NCCN3CCC(O)C3)CC[C@]3(C)[C@H](CC[C@@H]4[C@@]5(C)CC[C@H](O)C(C)(C)[C@@H]5CC[C@]43C)[C@@H]12 (stereo partly drawn) | 310 | 290 | 
C=C1C[C@]2(C)[C@H]3CC[C@@H]4[C@H]5[C@H](C(=C)C)CC[C@]5(C(=O)NCCCN(C)C)CC[C@@]4(C)[C@]3(C)CC[C@H]2C(C)(C)C1=O | 760 | 6390 | 
C=C(C)[C@@H]1CC[C@]2(C(=O)NCc3cncs3)CC[C@]3(C)[C@H](CC[C@@H]4[C@@]5(C)CC[C@H](O)C(C)(C)[C@@H]5CC[C@]43C)[C@@H]12 | 9300 | 780 | 
C=C(C)[C@@H]1CC[C@]2(C(=O)NCCN3CCCC3)CC[C@]3(C)[C@H](CC[C@@H]4[C@@]5(C)CC[C@H](O)C(C)(C)[C@@H]5CC[C@]43C)[C@@H]12 | 230 | 870 | 
C=C(C)[C@@H]1CC[C@]2(C(=O)NCCN(CC)CC)CC[C@]3(C)[C@H](CC[C@@H]4[C@@]5(C)CC[C@H](O)C(C)(C)[C@@H]5CC[C@]43C)[C@@H]12 | 120 | 720 | 
C=C(C)[C@@H]1CC[C@]2(C(=O)NC3CCNCC3)CC[C@]3(C)[C@H](CC[C@@H]4[C@@]5(C)CC[C@H](O)C(C)(C)[C@@H]5CC[C@]43C)[C@@H]12 | 1210 | 1960 | 
C=C(C)[C@@H]1CC[C@]2(C(=O)NC[C@H]3CCCN3C)CC[C@]3(C)[C@H](CC[C@@H]4[C@@]5(C)CC[C@H](O)C(C)(C)[C@@H]5CC[C@]43C)[C@@H]12 | 350 | 420 | 
C=C(C)[C@@H]1CC[C@]2(C(=O)Nc3nccs3)CC[C@]3(C)[C@H](CC[C@@H]4[C@@]5(C)CC[C@H](O)C(C)(C)[C@@H]5CC[C@]43C)[C@@H]12 | 1960 | 5460 | 
C=C(C)[C@@H]1CC[C@]2(C(=O)N[C@H]3CCCN(C)C3)CC[C@]3(C)[C@H](CC[C@@H]4[C@@]5(C)CC[C@H](O)C(C)(C)[C@@H]5CC[C@]43C)[C@@H]12 | 350 | 960 | 
C=C(C)[C@@H]1CC[C@]2(C(=O)NC[C@H]3CCN(C)C3)CC[C@]3(C)[C@H](CC[C@@H]4[C@@]5(C)CC[C@H](O)C(C)(C)[C@@H]5CC[C@]43C)[C@@H]12 | 360 |  | 
C=C(C)[C@@H]1CC[C@]2(C(=O)NCCNc3ccncc3)CC[C@]3(C)[C@H](CC[C@@H]4[C@@]5(C)CC[C@H](O)C(C)(C)[C@@H]5CC[C@]43C)[C@@H]12 | 310 | 590 | 
C=C(C)[C@@H]1CC[C@]2(C(=O)NC3CCCN(C)CC3)CC[C@]3(C)[C@H](CC[C@@H]4[C@@]5(C)CC[C@H](O)C(C)(C)[C@@H]5CC[C@]43C)[C@@H]12 (stereo partly drawn) | 110 | 250 | 
C=C(C)[C@@H]1CC[C@]2(C(=O)NCCN(CC)CCO)CC[C@]3(C)[C@H](CC[C@@H]4[C@@]5(C)CC[C@H](O)C(C)(C)[C@@H]5CC[C@]43C)[C@@H]12 | 220 | 1110 | 
C=C(C)[C@@H]1CC[C@]2(C(=O)N[C@H]3CCN(C)C3)CC[C@]3(C)[C@H](CC[C@@H]4[C@@]5(C)CC[C@H](O)C(C)(C)[C@@H]5CC[C@]43C)[C@@H]12 | 210 | 1870 | 
C=C(C)[C@@H]1CC[C@]2(C(=O)NCCN(C)CCN(C)C)CC[C@]3(C)[C@H](CC[C@@H]4[C@@]5(C)CC[C@H](O)C(C)(C)[C@@H]5CC[C@]43C)[C@@H]12 | 380 | 1880 | 
C=C(C)[C@@H]1CC[C@]2(C(=O)N[C@@H]3CN4CCC3CC4)CC[C@]3(C)[C@H](CC[C@@H]4[C@@]5(C)CC[C@H](O)C(C)(C)[C@@H]5CC[C@]43C)[C@@H]12 | 130 | 120 | 
C=C(C)[C@@H]1CC[C@]2(C(=O)NCCOCCN(C)C)CC[C@]3(C)[C@H](CC[C@@H]4[C@@]5(C)CC[C@H](O)C(C)(C)[C@@H]5CC[C@]43C)[C@@H]12 | 320 | 520 | 
C=C(C)[C@@H]1CC[C@]2(C(=O)NCc3cc[nH]n3)CC[C@]3(C)[C@H](CC[C@@H]4[C@@]5(C)CC[C@H](O)C(C)(C)[C@@H]5CC[C@]43C)[C@@H]12 | 7030 | 780 | 
C=C(C)[C@@H]1CC[C@]2(C(=O)NC[C@@H]3CCCN3C)CC[C@]3(C)[C@H](CC[C@@H]4[C@@]5(C)CC[C@H](O)C(C)(C)[C@@H]5CC[C@]43C)[C@@H]12 | 320 | 660 | 
C=C(C)[C@@H]1CC[C@]2(C(=O)NCC(C)(C)CN(C)C)CC[C@]3(C)[C@H](CC[C@@H]4[C@@]5(C)CC[C@H](O)C(C)(C)[C@@H]5CC[C@]43C)[C@@H]12 | 440 | 2900 | 
O=S(=O)(c1ccccc1)N(CC(F)(F)F)c1ccc(C(O)(C(F)(F)F)C(F)(F)F)cc1 [T091317] |  |  | viability at 1 µM [3]: 79.8%; Activity [4]: 3.3%; Activity [5]: 2.68%; Activity [6]: 3.82%; Activity [7]: 7.38%; Activity [8]: 8.56%; Activity [9]: 6.3%; viability at 10 µM [10]: 90.2%
C=C(C)[C@@H]1CC[C@]2(C(=O)NCCCN(C)C)CC[C@]3(C)[C@H](CC[C@@H]4[C@@]5(C)C[C@H](O)C(C)(C)[C@@H]5CC[C@]43C)[C@@H]12 | 2780 | 3060 | 
C=C(C)[C@@H]1CC[C@]2(C(=O)NC[C@@H]3CCN(C)C3)CC[C@]3(C)[C@H](CC[C@@H]4[C@@]5(C)CC[C@H](O)C(C)(C)[C@@H]5CC[C@]43C)[C@@H]12 | 320 |  | 
